Common to all, as to type: in vivo
The subject of experiment [1] is Blattella germanica (cockroach nymphs). Description: Residual test, mortality of cockroach nymphs (BG). As to conditions: 72 h, plastic pot, 3 days, read-out: grading of mortality, BG. Here is the method:
(§1) The activity of the compound was determined using a variety of insect pests. The compound was used in the form of liquid preparations containing 500 parts per million (ppm) by weight of the compound. The preparations were made by dissolving the compound in acetone and diluting the solutions with water containing 0.01% by weight of a wetting agent sold under the trade name "LISSAPOL" NX until the liquid preparations contained the required concentration of the compound. "Lissapol" is a Registered Trade Mark.
(§2) The test procedure adopted with regard to each pest was basically the same and comprised supporting a number of the pests on a medium which was usually a host plant or a foodstuff on which the pests feed, and treating either or both the pests and the medium with the preparations. The mortality of the pests was then assessed at periods usually varying from one to three days after the treatment.
(§3) The results of the tests are given in Table III for each of the compounds, at the rate in parts per million given in the second column as a grading of mortality designated as A, B or C wherein A indicates 80-100% mortality or knockdown, B indicates 50-79% mortality or knockdown and C indicates less than 50% mortality or knockdown.
(§4) In Table III the pest organism used is designated by a letter code and the pests species, the support medium or food, and the type and duration of test is given in Table II.

Experiment [2] deals with Diabrotica balteata (rootworm larvae). Description: Residual test, mortality of rootworm larvae (DB). As to conditions: 72 h, filter paper/maize seed, 3 days, read-out: grading of mortality, DB. Here is the method: as §1, §2, §3, §4
Experiment [3] deals with Nilaparvata lugens (green leaf hopper). Description: Contact test, mortality of Nilaparvata lugens (NL). The following applies: 144 h, cabbage leaf, 6 days, read-out: grading of mortality, NL. As for the experimental part: as §1, §2, §3, §4
The test system of experiment [4] is Tetranychus urticae (red spider mites - adult). Description: Contact test, mortality of red spider mites (TU). The following applies: 72 h, French bean leaf, 3 days, read-out: grading of mortality, TU. Here is the method:
as §1, §2, §3, §4
(red spider mites - adult)

Experiment [5] has as its system Heliothis viriscens (tobacco budworm). Description: whole plant or invertebrate. The following applies: in Gossypium hirsutum, 72 h, read-out: grading of mortality, HV. Here is the method: as §1, §2, §3, §4
Experiment [6] has as its system Musca domestica (houseflies - adults). Description: Contact test, mortality of houseflies (MD). The following applies: 24 h, cotton wool/sugar, 1 day, read-out: grading of mortality, MD. As for the experimental part: as §1, §2, §3, §4
Another experiment deals with Myzus persicae (aphids). Description: Contact test, mortality of aphids (MP). The following applies: 48 h, leaf, 2 days, read-out: grading of mortality, MP. As for the experimental part:
as §1, §2, §3, §4

Experiment [7] deals with Chilo partellurs (Stem borers). Description: Residual test, mortality of stem borers (CP). The following applies: 72 h, oil seed rape leaf, 3 days, read-out: grading of mortality, CP. As for the experimental part: as §1, §2, §3, §4

The record followed here is US4812483A, “Insecticidal alkenes” (Imperial Chemical Industries PLC, priority 1985, dated 1989).

A value given as a limit tells only on which side of the number the result lay.

By mortality is commonly meant the share of the test organisms that died. For the molecule `ClC(Cl)=CC1(COCc2cccc(Oc3ccccc3)c2)CC1` [Compound 9, 1-(2,2-dichlorovinyl)-1-(3-phenoxybenzyloxymethyl)cyclopropane], the mortality at 500 ppm was 50 to 79% in experiment [1]; 50 to 79% in experiment [2]; 80 to 100% in experiment [3]; less than 50% in experiment [4]; less than 50% in experiment [5]; 80 to 100% in experiment [6]. The mortality at 500 ppm with Myzus persicae (aphids) lay in the range of 80 to 100%.

On to `C=CC(C)(CC)COCc1cccc(Oc2ccccc2)c1` (stereo not drawn) [Compound 8, 3-Ethyl-3-methyl-4(3-phenoxybenzyloxy)but-1-ene], for which the mortality at 500 ppm in experiment [1] is less than 50%; in experiment [2] it was 80 to 100%; in experiment [3] it was 80 to 100%; in experiment [4] it was 80 to 100%; in experiment [5] it was less than 50%; in experiment [6], 80 to 100%. In addition, in the experiment with Myzus persicae (aphids), the mortality at 500 ppm was less than 50%.

As for `CC(C)(C=C(Cl)Cl)COCc1ccc(F)c(Oc2ccccc2)c1` [Compound 1, 2,2-dimethyl-1-(4-fluoro-3-phenoxybenzyloxy)-4,4-dichlorobut-3-ene], the mortality at 500 ppm in experiment [1], in experiment [2], in experiment [7], in experiment [3], in experiment [5] and in experiment [6] was 80 to 100% throughout. In addition, the mortality at 500 ppm in the experiment with Myzus persicae (aphids) was less than 50%.

With `C=CC(C)(C)COCc1ccc(F)c(Cc2ccccc2)c1` [Compound 14, 3,3-Dimethyl-4-(3-benzyl-4-fluorobenzyloxy)but-1-ene], the mortality at 500 ppm in experiment [1] is 50 to 79%; in experiment [2], 80 to 100%; in experiment [3], 80 to 100%; in experiment [4] it was less than 50%; in experiment [5], less than 50%; in experiment [6] it was 80 to 100%. Moreover, the mortality at 500 ppm with Myzus persicae (aphids) was less than 50%.

`C=CC(C)(C)COCc1ccc(F)c(Oc2ccccc2)c1` [Compound 5, 3,3-dimethyl-4-(4-fluoro-3-phenoxybenzyloxy)but-1-ene]: the mortality at 500 ppm in experiment [1] was 80 to 100%; in experiment [2], 80 to 100%; in experiment [3] it was 80 to 100%; in experiment [4], 80 to 100%; in experiment [5] it was less than 50%; in experiment [6], 80 to 100%. Moreover, the mortality at 500 ppm in the experiment with Myzus persicae (aphids) lay within 80 to 100%.

With `CC(C)(C=C(Cl)Cl)COCc1ccc(F)c(Cc2ccccc2)c1` [Compound 20, 2,2-dimethyl-1-(3-benzyl-4-fluorobenzyloxy)-4,4-dichlorobut-3-ene], the mortality at 500 ppm was less than 50% in experiment [1]; less than 50% in experiment [2]; 80 to 100% in experiment [3]; less than 50% in experiment [4]; less than 50% in experiment [5]; less than 50% in the experiment on Myzus persicae (aphids).

With `C=CC(C)(C)COCc1cccc(Oc2ccccc2)c1` [Compound 2, 3,3-Dimethyl-4-(3-phenoxybenzyloxy)but-1-ene], the mortality at 500 ppm in experiment [1] was less than 50%; in experiment [2] it was 80 to 100%; in experiment [3], 80 to 100%; in experiment [5], less than 50%; in experiment [6], 80 to 100%; in the experiment with Myzus persicae (aphids), less than 50%.

With `CC(C)(C=C(F)Cl)COCc1cccc(Oc2ccccc2)n1` [Compound 19, E,Z-2,2-dimethyl-1-(6-phenoxypyrid-2-yl)methoxy-4-chloro-4-fluorobut-3-ene], the mortality at 500 ppm in experiment [1] was 50 to 79%; in experiment [2], 80 to 100%; in experiment [3], 80 to 100%; in experiment [4], 50 to 79%; in experiment [5], less than 50%; in the experiment with Myzus persicae (aphids), 50 to 79%.

For the molecule `CC(C)(C=C(Cl)Cl)COCc1cccc(Oc2ccccc2)c1` [Compound 4, 2,2-dimethyl-1-(3-phenoxybenzyloxy)-4,4-dichlorobut-3-ene], the mortality at 500 ppm was less than 50% in experiment [1]; less than 50% in experiment [2]; 80 to 100% in experiment [3]; less than 50% in experiment [4]; less than 50% in experiment [5]; less than 50% in experiment [6]. Further, the mortality at 500 ppm with Myzus persicae (aphids) was less than 50%.

In the case of `CC(C)(C=C(Br)Br)COCc1cccc(Oc2ccccc2)c1` [Compound 3, 2,2-dimethyl-1-(3-phenoxybenzyloxy)-4,4-dibromobut-3-ene], the mortality at 500 ppm in experiment [1] was less than 50%; in experiment [2] it was less than 50%; in experiment [7], 80 to 100%; in experiment [3] it was 50 to 79%; in experiment [5], less than 50%; in experiment [6], less than 50%. Besides, in the experiment on Myzus persicae (aphids), the mortality at 500 ppm was less than 50%.

Regarding `CC(C)(C=CCl)COCc1cccc(Oc2ccccc2)c1` [Compound 10, 2,2-dimethyl-1-(3-phenoxybenzyloxy)-4-chlorobut-3-ene], the mortality at 500 ppm in experiment [1] was less than 50%; in experiment [2], 80 to 100%; in experiment [7] it was less than 50%; in experiment [3] it was 80 to 100%; in experiment [4], less than 50%; in experiment [6] it was 50 to 79%. The mortality at 500 ppm in the experiment with Myzus persicae (aphids) was less than 50%.

As to `CC(C)(C=C(F)F)COCc1cccc(Oc2ccccc2)c1` [Compound 17], the mortality at 500 ppm is 80 to 100% in experiment [1]; 80 to 100% in experiment [2]; 80 to 100% in experiment [3]; less than 50% in experiment [4]; less than 50% in experiment [5]; less than 50% with Myzus persicae (aphids).

As for `C=CC(C)(C)COCc1cccc(Oc2ccccc2)n1` [Compound 12, 3,3-Dimethyl-4-(6-phenoxypyrid-2-yl)methoxy-but-1-ene], the mortality at 500 ppm in experiment [1] was less than 50%; in experiment [2], 80 to 100%; in experiment [3], 80 to 100%; in experiment [4], less than 50%; in experiment [5] it was less than 50%; in experiment [6], less than 50%. Moreover, in the experiment on Myzus persicae (aphids), the mortality at 500 ppm is less than 50%.

In the case of `CC(C)(C=C(F)F)COCc1ccc(F)c(Cc2ccccc2)c1` [Compound 18], the mortality at 500 ppm was 80 to 100% in experiment [1]; 80 to 100% in experiment [2]; 80 to 100% in experiment [3]; 50 to 79% in experiment [4]; 80 to 100% in experiment [5]; less than 50% in the experiment with Myzus persicae (aphids).

For `CC(C)(C=C(Cl)Cl)COCc1cccc(Oc2ccccc2)n1` [Compound 13, 2,2-dimethyl-1-(6-phenoxypyrid-2-yl)methoxy-4,4-dichlorobut-3-ene], the mortality at 500 ppm in experiment [1] is 80 to 100%; in experiment [2], 80 to 100%; in experiment [3], 80 to 100%; in experiment [4] it was less than 50%; in experiment [5], 80 to 100%; in experiment [6], 50 to 79%. For the same molecule, the mortality at 500 ppm in the experiment with Myzus persicae (aphids) was in the range of 50 to 79%.

Turning to `CC(C)(C=C(F)F)COCc1cccc(Oc2ccccc2)n1` [Compound 16, 2,2-dimethyl-1-(6-phenoxypyrid-2-yl)methoxy-1,1-difluorobut-1-ene], the mortality at 500 ppm (in experiment [1]; in experiment [2]; in experiment [3]; in experiment [4]; in experiment [5]; with Myzus persicae (aphids)) was 80 to 100% each time.

Consider `CC(C)(C=C(F)Cl)COCc1cccc(Oc2ccccc2)c1` [Compound 11, Z,E-2,2-dimethyl-1-(3-phenoxybenzyloxy)-4-chloro-4-fluorobut-3-ene], for which the mortality at 500 ppm was 50 to 79% in experiment [1]; 80 to 100% in experiment [2]; 80 to 100% in experiment [3]; less than 50% in experiment [4]; 50 to 79% in experiment [5]; 50 to 79% in experiment [6]. In the experiment on Myzus persicae (aphids), the mortality at 500 ppm is less than 50%.

For the molecule `CC(C)(C=C(F)F)COCc1ccc(F)c(Oc2ccccc2)c1` [Compound 15, 2,2-dimethyl-1-(4-fluoro-3-phenoxybenzyloxy)-4,4-difluorobut-3-ene], the mortality at 500 ppm in experiment [1], in experiment [2], in experiment [3], in experiment [4], in experiment [5] and in experiment [6] was 80 to 100% each time. The mortality at 500 ppm in the experiment on Myzus persicae (aphids) lay within 80 to 100%.
